# According to patent publication US7307077B2, “Heterocyclic compound and antitumor agent containing the same as effective ingredient” (Zenyaku Kogyo Kabushiki Kaisha, priority 2001, dated 2007):
# Like-named read-outs stand apart in the source and are kept apart here.
# Key:
# MCF-7 cells = assay: Test 1: growth inhibition of MCF-7 human breast cancer cells; assay type: cell-based; conditions: read-out: GI50 (50% growth inhibition concentration)
# Procedure: Used in the test were MCF-7 cells which were established from human breast cancer and were cultured routinely under the conditions of 37° C. and 5% CO2, in MEM medium supplemented with 10% fetal calf serum, 25 mM of HEPES and 0.1 mg/ml of kanamycin. The MCF-7 cells in a logarithmic growth phase were treated with trypsin/EDTA to prepare single cell suspension adjusted to 4.0×10^4 cells/ml in MEM medium (supplemented with 10% fetal calf serum, 25 mM of HEPES and 0.1 mg/ml of kanamycin). Test compounds were dissolved in DMSO and diluted with RPMI 1640 medium (supplemented with 10% fetal calf serum, 25 mM of HEPES and 0.1 mg/ml of kanamycin) to a concentration of 2.0×10^−4-2.0×10^−9 M.
# The cell suspension was filled in a 96-wells microplate at a rate of 0.1 ml per well and was cultured for 24 hours so as to make the cells adhered to the microplate. Then, it was added with 0.1 ml of the sample solution and cultured at 37° C. for 72 hours in 5% CO2.
# 50% Growth inhibition concentrations (GI50 μM) were calculated from growth inhibitions at various sample concentrations.
# [1] = Homo sapiens, MCF7, 72 hours culture with sample
SMILES,melting point,GI50 (MCF-7 cells; [1]),GI50 (MCF-7 cells; 72 hours culture with sample)
"C[C@@H]1OCCN(c2nc(N3CCOCC3)nc(-n3c(C(F)F)nc4cc(O)ccc43)n2)[C@@H]1C (relative stereo) [compound 37, 2-(2-difluoromethyl-5-hydroxybenzimidazol-1-yl)-4-(2,3-cis-dimethylmorpholino)-6-morpholino-1,3,5-triazine]",170 to 175 °C (dec.),90 nM,
"CC1CN(c2nc(N3CCOCC3)nc(-n3c(C(F)F)nc4ccccc43)n2)CCO1 (stereo not drawn) [compound 17, 2-(2-difluoromethylbenzimidazol-1-yl)-4-(2-methylmorpholino)-6-morpholino-1,3,5-triazine]",188 to 191 °C,120 nM,
"Oc1ccc2c(c1)nc(C(F)F)n2-c1nc(N2CCOCC2)cc(N2CCOCC2)n1 [compound 40, 2-(2-difluoromethyl-5-hydroxybenzimidazol-1-yl)-4,6-dimorpholinopyrimidine]",223 to 226 °C (dec.),210 nM,
"FC(F)c1nc2ccccc2n1-c1nc(N2CCOCC2)nc(N2CCSCC2)n1 [compound 16, 2-(2-difluoromethylbenzimidazol-1-yl)-4-morpholino-6-thiomorpholino-1,3,5-triazine]",,350 nM,
"C[C@H]1COC(C)(C)CN1c1cc(N2CCOCC2)nc(-n2c(C(F)F)nc3ccccc32)n1 [compound 8, 2-(2-difluoromethylbenzimidazol-1-yl)-4-morpholino-6-[2,2,5(S)-trimethylmorpholino]pyrimidine]",113 to 116 °C,320 nM,
"Nc1ccc2nc(C(F)F)n(-c3nc(N4CCOCC4)cc(N4CCOCC4)n3)c2c1 [compound 35, 2-(6-amino-2-difluoromethylbenzimidazol-1-yl)-4,6-dimorpholinopyrimidine]",218 to 219 °C (dec.),140 nM,
"CCC(=O)Nc1nc2ccccc2n1-c1nc(N2CCOCC2)nc(N2CCO[C@@H](C)[C@@H]2C)n1 (relative stereo) [compound 25, 2-(2-propionylaminobenzimidazol-1-yl)-4-(trans-2,3-dimethylmorpholino)-6-morpholino-1,3,5-triazine]",,190 nM,
"CC1(C)CN(c2cc(N3CCOCC3)nc(-n3c(C(F)F)nc4ccccc43)n2)CCO1 [compound 5, 2-(2-difluoromethylbenzimidazol-1-yl)-4-(2,2-dimethylmorpholino)-6-morpholinopyrimidine]",149 to 152 °C,220 nM,
"C[C@@H]1OCCN(c2nc(N3CCOCC3)nc(-n3c(NC=O)nc4ccccc43)n2)[C@H]1C (relative stereo) [compound 26, 2-(trans-2,3-dimethylmorpholino)-4-(2-formylaminobenzimidazol-1-yl)-6-morpholino-1,3,5-triazine]",,< 40 nM,
"C[C@@H]1OCCN(c2cc(N3CCOCC3)nc(-n3cnc4ccccc43)n2)[C@H]1C (relative stereo) [compound A, 2-(benzimidazol-1-yl)-4-(trans-2,3-dimethylmorpholino)-6-morpholinopyrimidine]",,2200 nM,
"C[C@@H]1CO[C@@H](C)CN1c1nc(N2CCOCC2)nc(-n2c(C(F)F)nc3ccccc32)n1 (relative stereo) [compound 18, 2-(2-difluoromethylbenzimidazol-1-yl)-4-(trans-2,5-dimethylmorpholino)-6-morpholino-1,3,5-triazine]",,180 nM,
"C[C@@H]1OCCN(c2cc(N3CCOCC3)nc(-n3c(N)nc4ccccc43)n2)[C@@H]1C (relative stereo) [Example 2, 2-(2-aminobenzimidazol-1-yl)-4-(cis-2,3-dimethylmorpholino)-6-morpholinopyrimidine]",129 to 133 °C,,
"Nc1cccc2c1nc(C(F)F)n2-c1nc(N2CCOCC2)nc(N2CCOCC2)n1 [compound 34, 2-(4-amino-2-difluoromethylbenzimidazol-1-yl)-4,6-dimorpholino-1,3,5-triazine]",214 to 216 °C (dec.),80 nM,
"c1cn(-c2nc(N3CCOCC3)nc(N3CCOCC3)n2)cn1 [compound C, 2-(imidazol-1-yl)-4,6-dimorpholino-1,3,5-triazine, reference compound]",,20000 nM,
"C[C@@H]1OCCN(c2cc(N3CCCCC3)nc(-n3c(CO)nc4ccccc43)n2)[C@@H]1C (relative stereo) [compound 11, 4-(cis-2,3-dimethylmorpholino)-2-(2-hydroxymethylbenzimidazol-1-yl)-6-piperidinopyrimidine]",141 to 143 °C,200 nM,
"C[C@@H]1OCCN(c2cc(N3CCCC3CO)nc(-n3c(CO)nc4ccccc43)n2)[C@@H]1C (relative stereo) [compound 12, 4-(cis-2,3-dimethylmorpholino)-2-(2-hydroxymethylbenzimidazol-1-yl)-6-(2-hydroxymethylpyrrolidin-1-yl)pyrimidine]",104 to 108 °C,390 nM,

SMILES,melting point,GI50 (MCF-7 cells; [1]),GI50 (MCF-7 cells; 72 hours culture with sample)
"C[C@@H]1OCCN(c2cc(N3CCOCC3)nc(-n3c(CO)nc4ccccc43)n2)[C@@H]1C (relative stereo) [compound 10, 4-(cis-2,3-dimethylmorpholino)-2-(2-hydroxymethylbenzimidazol-1-yl)-6-morpholinopyrimidine]",125 to 128 °C,130 nM,
"CC1(C)CN(c2nc(N3CCOCC3)nc(-n3c(C(F)F)nc4ccccc43)n2)CCO1 [compound 15, 2-(2-difluoromethylbenzimidazol-1-yl)-4-(2,2-dimethylmorpholino)-6-morpholino-1,3,5-triazine]",176 to 178 °C,130 nM,
"CC(=O)Nc1nc2ccccc2n1-c1nc(N2CCOCC2)cc(N2CCO[C@@H](C)[C@@H]2C)n1 (relative stereo) [compound 23, 2-(2-acetylaminobenzimidazol-1-yl)-4-(trans-2,3-dimethylmorpholino)-6-morpholinopyrimidine]",150 to 153 °C,190 nM,
"C[C@@H]1CN(c2nc(N3CCOCC3)nc(-n3c(NC=O)nc4ccccc43)n2)C[C@H](C)O1 [compound 28, 2-(cis-2,6-dimethylmorpholino)-4-(2-formylaminobenzimidazol-1-yl)-6-morpholino-1,3,5-triazine]",242 to 244 °C,,
"COC(=O)Nc1nc2ccccc2n1-c1nc(N2CCOCC2)nc(N2CCOCC2)n1 [compound 29, 2-(2-methoxycarbonylaminobenzimidazol-1-yl)-4,6-dimorpholino-1,3,5-triazine]",206 to 209 °C,250 nM,
"C[C@@H]1OCCN(c2cc(N3CCOCC3)nc(-n3c(C(F)F)nc4ccccc43)n2)[C@@H]1C (relative stereo) [compound 1, 2-(2-difluoromethylbenzimidazol-1-yl)-4-(cis-2,3-dimethylmorpholino)-6-morpholinopyrimidine]",167 to 169 °C,110 nM,
"CC1(C)CN(c2nc(N3CCOCC3)nc(-n3c(C(F)F)nc4c(O)cccc43)n2)CCO1 [compound 38, 2-(2-difluoromethyl-4-hydroxybenzimidazol-1-yl)-4-(2,2-dimethylmorpholino)-6-morpholino-1,3,5-triazine]",228 to 231 °C (dec.),30 nM,
"C[C@@H]1OCCN(c2cc(N3CCOCC3)nc(-n3c(CF)nc4ccccc43)n2)[C@@H]1C (relative stereo) [compound 9, 4-(cis-2,3-dimethylmorpholino)-2-(2-fluoromethylbenzimidazol-1-yl)-6-morpholinopyrimidine]",163 to 165 °C,200 nM,
"FC(F)c1nc2ccccc2n1-c1nc(N2CCOCC2)cc(N2CCOCC2)n1 [compound 2, 2-(2-difluoromethylbenzimidazol-1-yl)-4,6-dimorpholinopyrimidine]",201 to 202 °C,210 nM,
"CC1CN(c2cc(N3CCOCC3)nc(-n3c(C(F)F)nc4ccccc43)n2)CCO1 (stereo not drawn) [compound 6, 2-(2-difluoromethylbenzimidazol-1-yl)-4-(2-methylmorpholino)-6-morpholinopyrimidine]",,290 nM,
"[O-][S+]1CCN(c2nc(N3CCOCC3)nc(-n3c(C(F)F)nc4ccccc43)n2)CC1 [compound 21, 2-(2-difluoromethylbenzimidazol-1-yl)-4-morpholino-6-(tetrahydro-1,4-thiazin-1-oxo-4-yl)-1,3,5-triazine]",,,340 nM
"C[C@@H]1OCCN(c2nc(N3CCOCC3)nc(-n3c(C(F)F)nc4ccccc43)n2)[C@@H]1C (relative stereo) [compound 13, 2-(2-difluoromethylbenzimidazol-1-yl)-4-(cis-2,3-dimethylmorpholino)-6-morpholino-1,3,5-triazine]",207 to 210 °C,,
"CN(C)c1nc(N(C)C)nc(N(C)C)n1 [compound D, hexamethylmelamine, reference compound]",,> 100000 nM,
"C[C@@H]1OCCN(c2cc(N3CCOCC3)nc(-n3c(C(F)F)nc4ccccc43)n2)[C@H]1C (relative stereo) [compound 4, 2-(2-difluoromethylbenzimidazol-1-yl)-4-(trans-2,3-dimethylmorpholino)-6-morpholinopyrimidine]",,180 nM,
"Cc1nc2ccccc2n1-c1nc(N2CCOCC2)nc(N2CCOCC2)n1 [compound B, 2-(2-methylbenzimidazol-1-yl)-4,6-dimorpholino-1,3,5-triazine, reference compound]",,3700 nM,
